Data published in paper PMC11285371 (Journal of medicinal chemistry, 2023).
Values joined by “and” are separate entries in the source; they are usually repeats but may differ in a detail not shown here. Equal values may be shown once. “Also recorded” adds a separate entry of the source.

What was measured:
Mtb H37Rv::luxCDAB = type: cell-based, Mycobacterium tuberculosis
[1] = 0.5 h
[2] = tested on: Cas1 glioblastoma cell line; conditions: cited from earlier work
[3] = cited from earlier work
15 mammalian cell lines = conditions: cited from earlier work
[4] = tested on: drug-tolerant Mtb persisters; type: cell-based, Mycobacterium tuberculosis
192 human kinases = conditions: 10 μM, K192 NanoBRET panel
[5] = tested on: Mtb H37Rv strain expressing GFP; experiment: microbe, parasite or virus in culture; type: cell-based; conditions: Mycobacterium tuberculosis
in vivo = conditions: CD1, mouse, po, 10 mg/kg, T1/2
TGFBR1 [6] = target: T1, TGFBR1 (Homo sapiens, UniProt P36897); experiment: TGFBR1 DiscoverX KINOMEscan binding assay
T1 sequence (P36897 34-503): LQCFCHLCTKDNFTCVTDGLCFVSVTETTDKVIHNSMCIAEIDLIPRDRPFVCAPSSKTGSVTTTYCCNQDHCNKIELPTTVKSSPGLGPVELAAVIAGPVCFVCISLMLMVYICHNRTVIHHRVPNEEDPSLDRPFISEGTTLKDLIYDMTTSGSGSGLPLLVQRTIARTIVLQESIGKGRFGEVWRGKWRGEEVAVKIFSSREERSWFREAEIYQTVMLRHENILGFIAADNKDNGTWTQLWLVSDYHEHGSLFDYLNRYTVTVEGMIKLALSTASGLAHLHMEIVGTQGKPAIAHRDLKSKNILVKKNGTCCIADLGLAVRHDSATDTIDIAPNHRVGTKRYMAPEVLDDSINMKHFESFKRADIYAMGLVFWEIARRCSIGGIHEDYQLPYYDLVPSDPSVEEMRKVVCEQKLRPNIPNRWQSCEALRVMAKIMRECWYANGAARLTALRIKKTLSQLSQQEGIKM

TGFBR1 [7] = target: T1, TGFBR1; type: biochemical

SMILES	activity in the Mtb assay (in words) (Mtb H37Rv::luxCDAB)	metabolic stability in mouse liver microsomes (in words) [1]	other results
Clc1cccc(-c2nc(Nc3ccncc3)c3ccccc3n2)n1 [compound 25]	retained potent antibacterial activity; also recorded: matched the activity of AQA in the Mtb assay	comparable	–
COc1ccc2nc(-c3cccc(C)n3)nc(Nc3ccncc3)c2c1 [compound 40]	retained both potent bactericidal activity and TGFBR1 enzyme inhibition at 1 and 10 μM; also recorded: matched the activity of AQA in the Mtb assay	improved metabolic stability	–
Cc1cccc(-c2nc(Nc3ccncc3)c3ccccc3n2)n1 [AQA]	–	–	toxicity against Cas1 glioblastoma cell line (in words) [2]: moderate toxicity; acute toxicity (in words) ([3]; 5 mg/kg p.o. in rats): no acute toxicity; bioavailability (in words) ([3]; 5 mg/kg p.o. in rats): poor; oral bioavailability (in words) ([3]; rats): modest oral bioavailability; toxicity against mammalian cell lines (in words) (15 mammalian cell lines): minimal toxicity; killing of persisters (cfu, in words) [4]: further reduction of viable bacteria; also recorded: full activity against persisters
CC[C@@H](CO)NCCN[C@@H](CC)CO [EMB, ethambutol]	–	–	killing of persisters (cfu, in words) [4]: did not increase the level of killing by RIF and INH further
Cc1cccc(-c2nc(Nc3ccncc3)c3ccn(C)c3n2)n1 [compound 43]	retained potent Mtb activity; also recorded: matched the activity of AQA in the Mtb assay; also recorded: low-micromolar activity against nonreplicating Mtb	–	additional human kinases on which the compound was active (192 human kinases): 7/192
c1ccc2c(Nc3ccncc3)nc(-c3cnccn3)nc2c1 [compound 31]	greatly reduced Mtb activity	–	–
NNC(=O)c1ccncc1 [isoniazid]	–	–	MIC [5]: 3.6 µM and 0.5 µg/mL
Cc1cccc(-c2cc3ccccc3c(Nc3ccncc3)n2)n1 [compound 45]	weaker activity	–	–
c1ccc(-c2nc(Nc3ccncc3)c3ccccc3n2)nc1 [compound 29]	reduced activity	comparable	–
Cc1cccc(-c2cc(Nc3ccncc3)c3ccccc3n2)n1 [compound 46]	weaker activity	–	–
Cc1cccc(-c2nc(Nc3ccc4nn(C)nc4c3)c3ccccc3n2)n1 [compound 16]	–	–	half-life (in vivo): > 3 h
COc1cncc(-c2nc(Nc3ccncc3)c3ccccc3n2)n1 [compound 32]	greatly reduced Mtb activity	–	–
Cc1cccc(-c2nc(Nc3ccc4ccsc4c3)c3ccccc3n2)n1 [compound 22]	–	very low metabolic stability	–
Cc1csc(-c2nc(Nc3ccncc3)c3ccccc3n2)n1 [compound 39]	lost activity against Mtb	–	–
Cc1cccc(-c2nc(Nc3ccc4nc(C)sc4c3)c3ccccc3n2)n1 [compound 7]	–	very low metabolic stability	TGFBR1 binding activity (in words) (TGFBR1 [6]): lost activity against TGFBR1
Cc1cccc(-c2nc(Nc3ccc4nnn(C)c4c3)c3ccccc3n2)n1 [compound 17]	–	very low metabolic stability	–
Fc1cccc(-c2nc(Nc3ccncc3)c3ccccc3n2)n1 [compound 26]	reduced activity	–	–
Cc1cccc(-c2nc(Nc3ccc4c(c3)ncn4C)c3ccccc3n2)n1 [compound 10]	–	–	antibacterial activity against nonreplicating Mtb (in words, relative to AQA) (Mtb H37Rv::luxCDAB): reduced bactericidal activity
Cc1cccc(-c2nc(Nc3ccc4[nH]ncc4c3)c3ccccc3n2)n1 [compound 11]	–	very low metabolic stability	–
COc1cccc(-c2nc(Nc3ccncc3)c3ccccc3n2)n1 [compound 28]	greatly reduced activity	–	–
c1cnc(-c2nc(Nc3ccncc3)c3ccccc3n2)nc1 [compound 33]	greatly reduced Mtb activity	–	–
FC(F)(F)c1cccc(-c2nc(Nc3ccncc3)c3ccccc3n2)n1 [compound 27]	reduced activity	–	–
Cc1cccc(-c2nc(C)cc(Nc3ccncc3)n2)n1 [compound 44]	retained partial Mtb and TGFBR1 activity	–	TGFBR1 enzyme inhibition (in words) (TGFBR1 [7]): retained partial Mtb and TGFBR1 activity
Cc1cccc(-c2nc(Nc3ccc4c(cnn4C)c3)c3ccccc3n2)n1 [compound 12]	–	very low metabolic stability	–
COc1ccc2c(Nc3ccncc3)nc(-c3cccc(C)n3)nc2c1 [compound 42]	less active	–	–
Cc1cccc(-c2nc(Nc3ccncc3)c3cc(O)ccc3n2)n1 [compound 41]	less active	improved metabolic stability	–
c1cncc(-c2nc(Nc3ccncc3)c3ccccc3n2)c1 [compound 30]	inactive	–	–
Cc1cccc(-c2nc(Nc3ccc4nn[nH]c4c3)c3ccccc3n2)n1 [compound 14]	–	–	antibacterial activity against nonreplicating Mtb (in words, relative to AQA) (Mtb H37Rv::luxCDAB): reduced bactericidal activity
